Assay results from patent US10000471B2, “Pyrazole P38 map kinase inhibitors” (Respivert Limited, priority 2010, dated 2018).

Tests used:
[1] = biological target: T1, p38 MAPKα isoform (MAPK14) (Homo sapiens, UniProt Q16539); experiment: Enzyme inhibition assay (FRET, Z-LYTE), p38 MAPKα via MAPKAP-K2 activation; type: biochemical; details: read-out: Enzyme Inhibition IC50 p38α
T1 construct: purchased Invitrogen
How it was run: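 Z-LYTE FRET format, in which protease cleaves only non-phosphorylated peptide, read after 1 h development. Compound was mixed with p38 MAPKα for 2 h at RT, and inhibition was gauged from MAPKAP-K2 activation/phosphorylation rather than directly. Percent inhibition against an uninhibited control was fitted to give IC50.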

[2] = biological target: T2, p38 MAPKγ (MAPK12) (Homo sapiens, UniProt P53778); experiment: Enzyme inhibition assay (FRET, Z-LYTE), p38 MAPKγ; type: biochemical; details: read-out: Enzyme Inhibition IC50 p38γ
T2 construct: purchased Invitrogen
T2 sequence (P53778 1-367): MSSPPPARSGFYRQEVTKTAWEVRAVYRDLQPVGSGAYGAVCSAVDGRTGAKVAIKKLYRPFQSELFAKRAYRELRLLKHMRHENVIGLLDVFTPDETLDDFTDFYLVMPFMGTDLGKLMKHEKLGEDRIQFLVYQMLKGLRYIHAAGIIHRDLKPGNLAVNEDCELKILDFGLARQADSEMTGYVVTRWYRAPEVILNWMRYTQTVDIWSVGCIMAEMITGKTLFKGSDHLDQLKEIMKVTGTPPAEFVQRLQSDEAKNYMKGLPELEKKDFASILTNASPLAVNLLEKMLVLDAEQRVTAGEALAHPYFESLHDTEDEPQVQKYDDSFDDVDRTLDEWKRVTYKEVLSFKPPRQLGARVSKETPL
How it was run: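 Z-LYTE FRET readout: after 1 h kinase reaction (ATP 100 μM, peptide 2 μM) following 2 h RT enzyme–compound preincubation in HEPES, protease cleaves only unphosphorylated peptide. Percent inhibition from donor/acceptor ratio relative to control; IC50 fitted from the curve.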

[3] = tested on: ICAM-1 induction in BEAS2B cells; experiment: Poly I:C-induced ICAM-1 induction in BEAS2B cells; type: cell-based, human; details: Homo sapiens, BEAS-2B, read-out: PolyIC/ICAM1 IC50 BEAS2B
How it was run: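 IC50 reflects inhibition of cell-surface ICAM-1 relative to vehicle, read by ELISA (OD450 against 655 nm) and divided by crystal violet OD595 for cell number. Readings were taken 18 hr after transfection of 1 μg/mL poly I:C into BEAS2B cells. Compound was added 2 hr before stimulation.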

[4] = tested on: TNFα release in THP-1 cells; experiment: LPS-induced TNFα release in THP-1 cells; type: cell-based, human; details: Homo sapiens
How it was run: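 IC50 derived from concentration-response of TNFα inhibition relative to vehicle, with TNFα quantified by sandwich ELISA in supernatants. THP-1 cells were challenged 4 hr with LPS (E. coli, 3 μg/mL).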

[5] = tested on: Differentiated U937 cells; experiment: Cell viability MTT assay; type: cell-based, human; details: negative = apparent increase in viability; for MTT Assay (Viability) 4 h d-U937, percentage loss of cell viability: 4 hr in 5% FCS; for MTT Assay (Viability) 24 h d-U937, percentage loss of cell viability: 24 h in 10% FCS
How it was run: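 Differentiated U937 cells pre-incubated with compound either 4 hr in 5% FCS or 24 h in 10% FCS, then 1 hr MTT. Formazan dissolved in DMSO, absorbance at 550 nm. Percentage viability loss relative to 0.5% DMSO vehicle; apparent increases appear as negative percentages.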

[6] = tested on: TNFα release in d-U937 cells; experiment: LPS-induced TNFα release in d-U937 cells; type: cell-based, human; details: Homo sapiens, dU937, relative to 10 μg/mL BIRB796, read-out: LPS/TNFα REC50 d-U937
How it was run: (§1)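 Sandwich ELISA of TNFα and IL-8 in supernatants after 4 hr 0.1 μg/mL LPS (E. coli O111:B4) challenge of U937 cells differentiated with PMA 100 ng/ml for 48–72 hr, compound added 2 hr beforehand. IL-8: IC50 from inhibition versus vehicle; TNFα: REC50 from inhibition as percentage of 10 μg/mL BIRB796 effect.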

[7] = tested on: IL-8 release in d-U937 cells; experiment: LPS-induced IL-8 release in d-U937 cells; type: cell-based, human; details: Homo sapiens, dU937
How it was run: as §1

T1 sequence (Q16539 whole entry, canonical isoform): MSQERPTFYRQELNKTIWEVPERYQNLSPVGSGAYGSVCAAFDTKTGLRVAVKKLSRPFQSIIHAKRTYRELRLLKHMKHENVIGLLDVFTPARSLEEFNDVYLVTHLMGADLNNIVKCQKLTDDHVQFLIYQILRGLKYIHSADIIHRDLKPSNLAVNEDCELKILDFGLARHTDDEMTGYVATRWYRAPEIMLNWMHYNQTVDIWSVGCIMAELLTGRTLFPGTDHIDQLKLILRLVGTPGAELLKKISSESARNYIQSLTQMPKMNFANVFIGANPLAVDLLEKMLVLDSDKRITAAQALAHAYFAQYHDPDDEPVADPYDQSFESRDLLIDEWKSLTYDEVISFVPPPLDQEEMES

Row | Structure (SMILES) | IC50 [1] [nM] | IC50 [2] [nM] | IC50 [3] [nM] | IC50 [4] [nM] | MTT Assay (Viability) 4 h d-U937, percentage loss of cell viability [5] [%] | MTT Assay (Viability) 24 h d-U937, percentage loss of cell viability [5] [%] | EC50 [6] [nM] | IC50 [7] [nM]
1 | CNC(=O)Nc1cc(Oc2ccc(NC(=O)Nc3cc(C(C)(C)C)nn3-c3ccc(CO)cc3)c(Cl)c2Cl)ccn1 [Example 52, 1-(3-tert-butyl-1-(4-hydroxymethylphenyl)-1H-pyrazol-5-yl)-3-(2,3-dichloro-4-(2-(3-methylureido)pyridin-4-yloxy)phenyl)urea] | 16.8 | 32.1 | 2.4 | 1 | −43.8 | 8.1 | 0.5 | 1.9
2 | CNC(=O)Nc1cc(COc2ccc(NC(=O)Nc3cc(C(C)(C)C)nn3-c3ccc(OC)cc3)c(Cl)c2Cl)ccn1 [Example 18, 1-(3-tert-Butyl-1-(4-methoxyphenyl)-1H-pyrazol-5-yl)-3-(2,3-dichloro-4-((2-(3-methylureido)pyridin-4-yl)methoxy)phenyl)urea] | 29.4 | > 16300 | 343 | 4.7 | 39.5 | −4.6 | 6.7 | 48.4
3 | COCC(=O)Nc1cc(COc2ccc(NC(=O)Nc3cc(C(C)(C)C)nn3-c3ccc(C)cc3)c(Cl)c2Cl)ccn1 [Example 14, N-(4-((4-(3-(3-tert-Butyl-1-p-tolyl-1H-pyrazol-5-yl)ureido)-2,3-dichlorophenoxy)methyl)pyridin-2-yl)-2-methoxyacetamide] | 17 | 33.1 | 32.2 | 6.1 | −7.9 | 49.6 | 40.8 | 70.2
4 | COCC(=O)Nc1cc(Oc2ccc(NC(=O)Nc3cc(C(C)(C)C)nn3-c3ccc(C)cc3)c(Br)c2)ccn1 [Example 32, N-(4-(3-bromo-4-(3-(3-tert-butyl-1-p-tolyl-1H-pyrazol-5-yl)ureido)phenoxy)pyridin-2-yl)-2-methoxyacetamide] | 42.9 | 148 | 6.5 | 1.3 | 17.2 | 65.3 | 0.6 | 29.1
5 | COCC(=O)Nc1cc(Oc2ccc(NC(=O)Nc3cc(C(C)(C)C)nn3-c3ccc(C)cc3)c(S(C)(=O)=O)c2)ccn1 [Example 2, N-(4-(4-(3-(3-tert-Butyl-1-p-tolyl-1H-pyrazol-5-yl)ureido)-3-(methylsulfonyl)phenoxy)pyridin-2-yl)-2-methoxyacetamide] | 37.7 | 366 | 427 | 5.3 | −3.1 | 32.7 | 29.4 | 174
6 | CNC(=O)Nc1cc(Oc2ccc(NC(=O)Nc3cc(C(C)(C)C)nn3-c3ccc(OC)cc3)c(Cl)c2Cl)ncn1 [Example 97, 1-(3-tert-butyl-1-(4-methoxyphenyl)-1H-pyrazol-5-yl)-3-(2,3-dichloro-4-(6-(3-methylureido)pyrimidin-4-yloxy)phenyl) urea] | 33.2 | 203 | 1.2 | 1.4 | −27.2 | 32.9 | 0.1 | 0.1
7 | COCC(=O)Nc1cc(Oc2ccc(NC(=O)Nc3cc(C(C)(C)C)nn3-c3ccc(C)cc3)c3c2CCCC3)ccn1 [Example 5, N-(4-(4-(3-(3-tert-Butyl-1-p-tolyl-1H-pyrazol-5-yl)ureido)-5,6,7,8-tetrahydronaphthalen-1-yloxy)pyridin-2-yl)-2-methoxyacetamide] | 18.7 | 1360 | 21.9 | 1.4 | −3.5 | 18.7 | 0.4 | 50.6
8 | CNC(=O)Nc1cc(Oc2ccc(NC(=O)Nc3cc(C(C)(C)C)nn3-c3ccc(O)cc3)c(Cl)c2Cl)ccn1 [Example 51, 1-(3-tert-butyl-1-(4-hydroxyphenyl)-1H-pyrazol-5-yl)-3-(2,3-dichloro-4-(2-(3-methylureido)pyridin-4-yloxy)phenyl)urea] | 34.2 | 174 | 0.7 | 0.7 | −17.3 | 57.3 | 1.2 | 6.8
9 | COCC(=O)Nc1cc(Oc2ccc(NC(=O)Nc3cc(C(C)(C)C)nn3-c3ccc(C)cc3)c(F)c2F)ccn1 [Example 34, N-(4-(4-(3-(3-tert-butyl-1-p-tolyl-1H-pyrazol-5-yl)ureido)-2,3-difluorophenoxy)pyridin-2-yl)-2-methoxyacetamide] | 134 | 24 | 2.5 | 0.4 | 2.4 | 82.1 | 0.3 | 2.2
10 | CN(C)[C@H]1CCN(C(=O)Nc2cc(Oc3ccc(NC(=O)Nc4cc(C(C)(C)C)nn4-c4ccc(CO)cc4)c(Cl)c3Cl)ccn2)C1 [Example 83, (S)-N-(4-(4-(3-(3-tert-butyl-1-(4-hydroxymethylphenyl)-1H-pyrazol-5-yl)ureido)-2,3-dichlorophenoxy)pyridin-2-yl)-3-(dimethyl-amino)pyrrolidine-1-carboxamide] | 6.7 | 19.8 | 2.4 | 0.7 | −9.9 | 34.3 | 1.7 | 34
11 | COCC(=O)Nc1nccc(Oc2ccc(NC(=O)Nc3cc(C(C)(C)C)nn3-c3ccc(C)cc3)c(Cl)c2Cl)n1 [Example 90, N-(4-(4-(3-(3-tert-butyl-1-p-tolyl-1H-pyrazol-5-yl)ureido)-2,3-dichlorophenoxy)pyrimidin-2-yl)-2-methoxyacetamide] | 45.4 | 126 | 6.8 | 1.3 | −26.8 | −0.5 | 1.3 | 2.3
12 | COCCNC(=O)Nc1cc(Oc2ccc(NC(=O)Nc3cc(C(C)(C)C)nn3-c3ccc(OC)cc3)c(Cl)c2Cl)ccn1 [Example 67, 1-(4-(4-(3-(3-tert-butyl-1-(4-methoxyphenyl)-1H-pyrazol-5-yl)ureido)-2,3-dichlorophenoxy)pyridin-2-yl)-3-(2-methoxyethyl)urea] | 27.9 | 67.8 | 2 | 1.2 | −11.4 | 40.9 | 1.7 | 5.8
13 | COCC(=O)Nc1cc(Oc2ccc(NC(=O)Nc3cc(C(C)(C)C)nn3-c3ccc(C)cc3)c(Cl)c2C#N)ccn1 [Example 4, N-(4-(4-(3-(3-tert-Butyl-1-p-tolyl-1H-pyrazol-5-yl)ureido)-3-chloro-2-cyanophenoxy)pyridin-2-yl)-2-methoxyacetamide] | 4.5 | 238 | 1.1 | 0.2 | −24.1 | 64.5 | 0.1 | 0.1
